Data from US20170190671A1, “BIS(ARYL)CATECHOL DERIVATIVES AS HERBICIDES” (E I DU PONT DE NEMOURS AND COMPANY, priority 2014, published 2017).

Tests used:
Experiment in all cases: Test D postemergence
Assay type in all cases: in vivo
Conditions in all cases: scale 0 to 100
[1] = system: wild mustard (Sinapis arvensis)
Outline: (§1)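 Assessment is visual, relative to untreated controls, 14 to 21 days after application, with 100 meaning complete control. Seeds in silt loam receive preemergence spray; seedlings at the 1- to 4-leaf stage receive postemergence spray.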

kochia (Kochia scoparia) = system: kochia (Kochia scoparia)
Outline: as §1

[2] = system: lambsquarters (Chenopodium album)
Outline: as §1

[3] = system: speedwell (bird's-eye speedwell, Veronica persica)
Outline: as §1

[4] = system: winter barley (Hordeum vulgare)
Outline: as §1

[5] = system: downy bromegrass (Bromus tectorum)
Outline: as §1

[6] = system: green foxtail (Setaria viridis)
Outline: as §1

[7] = system: bluegrass (annual bluegrass, Poa annua)
Outline: as §1

[8] = system: field violet (Viola arvensis)
Outline: as §1

[9] = system: field poppy (Papaver rhoeas)
Outline: as §1

[10] = system: wild radish (Raphanus raphanistrum)
Outline: as §1

[11] = system: Russian thistle (Salsola kali)
Outline: as §1

[12] = system: canarygrass (Phalaris minor)
Outline: as §1

[13] = system: chamomile (scentless chamomile, Matricaria inodora)
Outline: as §1

[14] = system: wild buckwheat (Polygonum convolvulus)
Outline: as §1

[15] = system: spring wheat (Triticum aestivum)
Outline: as §1

[16] = system: galium (catchweed bedstraw, Galium aparine)
Outline: as §1

[17] = system: blackgrass (Alopecurus myosuroides)
Outline: as §1

[18] = system: pigweed (Amaranthus retroflexus)
Outline: as §1

[19] = system: Italian ryegrass (Lolium multiflorum)
Outline: as §1

[20] = system: oilseed rape (Brassica napus)
Outline: as §1

`FC(F)(F)c1cnc(Oc2c(Br)cccc2Oc2ncc(Cl)cn2)nc1` [Compound 24] was tested, and the “Plant response rating, Mustard, Wild” value ([1]; 16 g ai/ha) was 50, the “Plant response rating, Mustard, Wild” value ([1]; 31 g ai/ha) was 80 and the “Plant response rating, Mustard, Wild” value ([1]; 62 g ai/ha) was 70. The “Plant response rating, Mustard, Wild” value ([1]; 125 g ai/ha) was 85, the “Plant response rating, Kochia” value (kochia (Kochia scoparia); 16 g ai/ha) was 40 and the “Plant response rating, Kochia” value (kochia (Kochia scoparia); 31 g ai/ha) was 65. For the same molecule, the “Plant response rating, Kochia” value (kochia (Kochia scoparia); 62 g ai/ha) was 80, the “Plant response rating, Kochia” value (kochia (Kochia scoparia); 125 g ai/ha) was 95 and the “Plant response rating, Lambsquarters” value ([2]; 16 g ai/ha) was 35. The “Plant response rating, Lambsquarters” value ([2]; 31 g ai/ha) was 45, the “Plant response rating, Lambsquarters” value ([2]; 62 g ai/ha) was 60 and the “Plant response rating, Lambsquarters” value ([2]; 125 g ai/ha) was 75. The “Plant response rating, Speedwell” value ([3]; 16 g ai/ha) was 35, the “Plant response rating, Speedwell” value ([3]; 31 g ai/ha) was 60 and the “Plant response rating, Speedwell” value ([3]; 62 g ai/ha) was 80. For the same molecule, the “Plant response rating, Speedwell” value ([3]; 125 g ai/ha) was 90, the “Plant response rating, Barley, Winter” value ([4]; 16 g ai/ha) was 10 and the “Plant response rating, Barley, Winter” value ([4]; 31 g ai/ha) was 15. The “Plant response rating, Barley, Winter” value ([4]; 62 g ai/ha) was 20, the “Plant response rating, Barley, Winter” value ([4]; 125 g ai/ha) was 25 and the “Plant response rating, Bromegrass, Downy” value ([5]; 16 g ai/ha) was 15. The “Plant response rating, Bromegrass, Downy” value ([5]; 31 g ai/ha) was 20, the “Plant response rating, Bromegrass, Downy” value ([5]; 62 g ai/ha) was 20 and the “Plant response rating, Bromegrass, Downy” value ([5]; 125 g ai/ha) was 25. For the same molecule, the “Plant response rating, Foxtail, Green” value ([6]; 16 g ai/ha) was 15, the “Plant response rating, Foxtail, Green” value ([6]; 31 g ai/ha) was 15 and the “Plant response rating, Foxtail, Green” value ([6]; 62 g ai/ha) was 20. For the same molecule, the “Plant response rating, Foxtail, Green” value ([6]; 125 g ai/ha) was 30, the “Plant response rating, Bluegrass” value ([7]; 16 g ai/ha) was 15 and the “Plant response rating, Bluegrass” value ([7]; 31 g ai/ha) was 20. The “Plant response rating, Bluegrass” value ([7]; 62 g ai/ha) was 35, the “Plant response rating, Bluegrass” value ([7]; 125 g ai/ha) was 40 and the “Plant response rating, Field Violet” value ([8]; 16 g ai/ha) was 65. For the same molecule, the “Plant response rating, Field Violet” value ([8]; 31 g ai/ha) was 75, the “Plant response rating, Field Violet” value ([8]; 62 g ai/ha) was 85 and the “Plant response rating, Field Violet” value ([8]; 125 g ai/ha) was 98. The “Plant response rating, Field Poppy” value ([9]; 16 g ai/ha) was 70, the “Plant response rating, Field Poppy” value ([9]; 31 g ai/ha) was 80 and the “Plant response rating, Field Poppy” value ([9]; 62 g ai/ha) was 90. For the same molecule, the “Plant response rating, Field Poppy” value ([9]; 125 g ai/ha) was 95, the “Plant response rating, Radish, Wild” value ([10]; 16 g ai/ha) was 75 and the “Plant response rating, Radish, Wild” value ([10]; 31 g ai/ha) was 75. For the same molecule, the “Plant response rating, Radish, Wild” value ([10]; 62 g ai/ha) was 95, the “Plant response rating, Radish, Wild” value ([10]; 125 g ai/ha) was 100 and the “Plant response rating, Russian Thistle” value ([11]; 16 g ai/ha) was 10. For the same molecule, the “Plant response rating, Russian Thistle” value ([11]; 31 g ai/ha) was 25, the “Plant response rating, Russian Thistle” value ([11]; 62 g ai/ha) was 30 and the “Plant response rating, Russian Thistle” value ([11]; 125 g ai/ha) was 55. For the same molecule, the “Plant response rating, Canarygrass” value ([12]; 16 g ai/ha) was 30, the “Plant response rating, Canarygrass” value ([12]; 31 g ai/ha) was 35 and the “Plant response rating, Canarygrass” value ([12]; 62 g ai/ha) was 45. For the same molecule, the “Plant response rating, Canarygrass” value ([12]; 125 g ai/ha) was 45, the “Plant response rating, Chamomile” value ([13]; 16 g ai/ha) was 5 and the “Plant response rating, Chamomile” value ([13]; 31 g ai/ha) was 5. The “Plant response rating, Chamomile” value ([13]; 62 g ai/ha) was 10, the “Plant response rating, Chamomile” value ([13]; 125 g ai/ha) was 15 and the “Plant response rating, Buckwheat, Wild” value ([14]; 16 g ai/ha) was 60. For the same molecule, the “Plant response rating, Buckwheat, Wild” value ([14]; 31 g ai/ha) was 60, the “Plant response rating, Buckwheat, Wild” value ([14]; 62 g ai/ha) was 75 and the “Plant response rating, Buckwheat, Wild” value ([14]; 125 g ai/ha) was 95. The “Plant response rating, Wheat, Spring” value ([15]; 16 g ai/ha) was 10, the “Plant response rating, Wheat, Spring” value ([15]; 31 g ai/ha) was 15 and the “Plant response rating, Wheat, Spring” value ([15]; 62 g ai/ha) was 20. The “Plant response rating, Wheat, Spring” value ([15]; 125 g ai/ha) was 20, the “Plant response rating, Galium” value ([16]; 16 g ai/ha) was 40 and the “Plant response rating, Galium” value ([16]; 31 g ai/ha) was 70. For the same molecule, the “Plant response rating, Galium” value ([16]; 62 g ai/ha) was 85, the “Plant response rating, Galium” value ([16]; 125 g ai/ha) was 90 and the “Plant response rating, Blackgrass” value ([17]; 16 g ai/ha) was 25. For the same molecule, the “Plant response rating, Blackgrass” value ([17]; 31 g ai/ha) was 30, the “Plant response rating, Blackgrass” value ([17]; 62 g ai/ha) was 35 and the “Plant response rating, Blackgrass” value ([17]; 125 g ai/ha) was 45. For the same molecule, the “Plant response rating, Pigweed” value ([18]; 16 g ai/ha) was 85, the “Plant response rating, Pigweed” value ([18]; 31 g ai/ha) was 95 and the “Plant response rating, Pigweed” value ([18]; 62 g ai/ha) was 98. The “Plant response rating, Pigweed” value ([18]; 125 g ai/ha) was 100, the “Plant response rating, Ryegrass, Italian” value ([19]; 16 g ai/ha) was 15 and the “Plant response rating, Ryegrass, Italian” value ([19]; 31 g ai/ha) was 20. For the same molecule, the “Plant response rating, Ryegrass, Italian” value ([19]; 62 g ai/ha) was 25, the “Plant response rating, Ryegrass, Italian” value ([19]; 125 g ai/ha) was 35 and the “Plant response rating, Oilseed Rape” value ([20]; 16 g ai/ha) was 65. The “Plant response rating, Oilseed Rape” value ([20]; 31 g ai/ha) was 70, the “Plant response rating, Oilseed Rape” value ([20]; 62 g ai/ha) was 75 and the “Plant response rating, Oilseed Rape” value ([20]; 125 g ai/ha) was 80.
